Experimental data from patent US20240424112A1, “TETRAHYDROISOQUINOLINE COMPOUNDS THAT ARE KEAP1 BINDERS” (C4X Discovery Limited, priority 2021, published 2024).

Assays:
[1] = system: NRF2 mediated gene NAD(P)H:quinone acceptor oxidoreductase 1 (NQO1) mRNA in BEAS-2B cells; test: Beas2B NQO1 mRNA cell based assay; conditions: Homo sapiens, 24 h, vs vehicle (0.1% DMSO), read-out: EC50 (increase in NQO1 mRNA)
Procedure: Beas2B NQO1 mRNA Cell Based Assay
The up-regulation of the NRF2 mediated gene NAD(P)H:quinone acceptor oxidoreductase 1 (NQO1) was measured using the following assay method: BEAS-2B cells (ATCC CRL-9609) were plated in 96-well clear plates at 20,000 cells/well in 75 μL of cell culture media and incubated overnight (37° C., 5% CO2). On day 2, 25 μL of compound or controls were added to the cells for 24 h. On day 3, the medium was aspirated from the plate and the Cells-to-CT™ 1-Step TaqMan® Kit (Ambion A25603) was used to perform expression analysis directly from cultured cells without RNA purification according to the manufacturer's instructions.
Briefly, cells were washed with ice cold PBS and 22.5 μL of room-temperature DNase/Lysis solution was added to the cells and incubated at room temperature for 5 minutes. To stop the reaction, 2.25 μL of stop solution was added to the cell lysate. The samples were diluted 1:5 using nuclease free water and 2.5 μL transferred into the PCR plate. Real-time PCR was performed using the C-1000 Thermal Cycler (Bio-Rad) using human beta actin as the internal control. The cDNA was amplified with a specific primer for NQO1 using the 1-step RT-PCR master mix (Ambion Cells-to-CT™ 1-Step TaqMan® Kit A25603). The primers/probes sets that were used for amplification of cDNA were obtained from TaqMan Gene Expression Assays (Applied Biosystems). The comparative CT (ΔΔCT) relative quantification method was used to calculate the relative mRNA level of the target gene NQO1 as described in the Applied Biosystems Chemistry Guide. The data are expressed as an increase in target gene mRNA compared to vehicle (0.1% DMSO) control and the EC50 values were determined by fitting the data to a four parameter logistic fit using XLfit or XE Runner within ActivityBase.

BRD4 long isoform = target: T1, BRD4 long isoform (Homo sapiens, UniProt O60885); test: BRD4 degradation assay (Western blot, MDA-MB-468 cells), long isoform; assay type: cell-based; conditions: MDA-MB-468, n = 2
T1 construct: endogenous in cells; host or cells: MDA-MB-468
Procedure: (§1) BRD4 Degradation Assay Protocol Summary
(§2) MDA-MB-468 cells were cultured routinely in DMEM supplemented with 10% heat inactivated FBS and 1% Penicillin-Streptomycin (Thermofisher Scientific) at 37° C. 5% CO2. Cells were seeded in 6-well plates at 4*10^5 cells per well and left to adhere overnight. Example compounds were solubilised in DMSO to make 10 mM stocks followed by serial dilutions in DMSO to 200× final concentration. These were further diluted in culture media to give 20× treatment stocks before addition to cells to a 1× final concentration. Cells were then incubated at 37° C. 5% CO2 for 24 or 48 hours after which cells were lysed in RIPA buffer supplemented with cOmplete Mini Protease Inhibitor Cocktail and PhosSTOP™ (Roche). Lysates were clarified by centrifugation at 13,000 RPM for 10 minutes and the protein concentration of the resulting supernatants determined by BCA assay (ThermoFisher Scientific) as per manufacturer's instructions. Lysates were denatured and reduced in NuPAGE LDS sample buffer and sample reducing agent before 10 μg was loaded onto NuPAGE […] Tris-Acetate Mini Protein Gels (ThermoFisher Scientific). Protein was transferred to nitrocellulose membranes using a Trans-Blot Turbo Transfer System (Bio-Rad) before blocking for 1 hour in Intercept (TBS) Blocking Buffer (Li-Cor). Membranes were then incubated overnight with BRD4 (ab128874; Abcam) and α-tubulin (T6074; Sigma-Aldrich) antibodies diluted 1:2000 and 1:16,000 respectively in Tris-buffered saline 0.05% Tween 20 (TBS-T). The following day, membranes were washed with TBS-T before addition of anti-rabbit IRDye 800 CW and anti-mouse IRDye 680LT secondary antibodies (LiCor) (diluted 1:10,000 in TBS-T) for one hour. Membranes were then washed with TBS-T before imaging using a LICOR Odyssey Infrared Imaging System with Image Studio Ver 5.2 software (LiCor). Densitometry analysis was carried out in the LiCor image studio software where BRD4 signal was normalised to α-tubulin signal. Percentage degradation of BRD4 relative to the DMSO treated negative control was calculated as: =100−(signal of interest/signal of control sample*100). BRD4 degradation by dBET1 was used as positive control for each plate. Data obtained for the percentage degradation of BRD4 upon treatment with the Example compounds 1-6 and Comparative Example compounds 1-3 at 24 hour incubation are shown in Table 2 and with 48 hour incubation are shown in Table 3.

BRD4 short isoform = target: T2, BRD4 short isoform (Homo sapiens, UniProt O60885); test: BRD4 degradation assay (Western blot, MDA-MB-468 cells), short isoform; assay type: cell-based; conditions: MDA-MB-468, n = 2
T2 construct: endogenous in cells; host or cells: MDA-MB-468
Procedure: as §1, §2

SMILES	EC50 [1] [nM]	% Mean Degradation of BRD4 (BRD4 long isoform; 24 h, 0.1 μM) [%]	% Mean Degradation of BRD4 (BRD4 long isoform; 24 h, 1 μM) [%]	% Mean Degradation of BRD4 (BRD4 long isoform; 24 h, 5 μM) [%]	% Mean Degradation of BRD4 (BRD4 long isoform; 48 h, 0.1 μM) [%]	% Mean Degradation of BRD4 (BRD4 long isoform; 48 h, 1 μM) [%]	% Mean Degradation of BRD4 (BRD4 long isoform; 48 h, 5 μM) [%]	% Mean Degradation of BRD4 (BRD4 short isoform; 24 h, 0.1 μM) [%]	% Mean Degradation of BRD4 (BRD4 short isoform; 24 h, 1 μM) [%]	% Mean Degradation of BRD4 (BRD4 short isoform; 24 h, 5 μM) [%]	% Mean Degradation of BRD4 (BRD4 short isoform; 48 h, 0.1 μM) [%]	% Mean Degradation of BRD4 (BRD4 short isoform; 48 h, 1 μM) [%]	% Mean Degradation of BRD4 (BRD4 short isoform; 48 h, 5 μM) [%]
CNC(=O)[C@@]1(C)CCCC[C@H]1C(=O)N1CCc2c(Cl)ccc(OCc3nnn(CCNC(=O)CNC(=O)C[C@@H]4N=C(c5ccc(Cl)cc5)c5c(sc(C)c5C)-n5c(C)nnc54)c3C)c2[C@H]1CN1CC2(CC2)CC1=O [Example 2]	458	77	93	91	78	93	94	84	95	97	71	92	93
Cc1sc2c(c1C)C(c1ccc(Cl)cc1)=N[C@@H](CC(=O)NCC(=O)NCCOCc1c(COc3ccc(Cl)c4c3[C@@H](CN3CC5(CC5)CC3=O)N(C(=O)[C@@H]3CCCC[C@]3(C)C(=O)O)CC4)nnn1C)c1nnc(C)n1-2 [Example 3, (1S,2R)-2-((S)-5-Chloro-8-((5-((2-(2-(2-((S)-4-(4-chlorophenyl)-2,3,9-trimethyl-6H-thieno[3,2-f][1,2,4]triazolo[4,3-a][1,4]diazepin-6-yl)acetamido)acetamido)ethoxy)methyl)-1-methyl-1H-1,2,3-triazol-4-yl)methoxy)-1-((6-oxo-5-azaspiro[2.4]heptan-5-yl)methyl)-1,2,3,4-tetrahydroisoquinoline-2-carbonyl)-1-methylcyclohexane-1-carboxylic acid]	280	23	80	75	14	67	60	31	87	87	25	77	79
Cc1sc2c(c1C)C(c1ccc(Cl)cc1)=N[C@@H](CC(=O)NCCC(=O)NCCOCc1c(COc3ccc(Cl)c4c3[C@@H](CN3CC5(CC5)CC3=O)N(C(=O)[C@@H]3CCCC[C@]3(C)C(=O)O)CC4)nnn1C)c1nnc(C)n1-2 [Example 4, (1S,2R)-2-((S)-5-Chloro-8-((5-((2-(3-(2-((S)-4-(4-chlorophenyl)-2,3,9-trimethyl-6H-thieno[3,2-f][1,2,4]triazolo[4,3-a][1,4]diazepin-6-yl)acetamido)propanamido)ethoxy)methyl)-1-methyl-1H-1,2,3-triazol-4-yl)methoxy)-1-((6-oxo-5-azaspiro[2.4]heptan-5-yl)methyl)-1,2,3,4-tetrahydroisoguinoline-2-carbonyl)-1-methylcyclohexane-1-carboxylic acid]	660	−37	26	43	−19	56	71	18	65	75	−2	65	77
Cc1sc2c(c1C)C(c1ccc(Cl)cc1)=N[C@@H](CC(=O)NCCOCCC(=O)NCCOCc1c(COc3ccc(Cl)c4c3[C@@H](CN3CC5(CC5)CC3=O)N(C(=O)[C@@H]3CCCC[C@]3(C)C(=O)O)CC4)nnn1C)c1nnc(C)n1-2 [Example 5, (1S,2R)-2-((S)-5-Chloro-8-((5-(14-((S)-4-(4-chlorophenyl)-2,3,9-trimethyl-6H-thieno[3,2-f][1,2,4]triazolo[4,3-a][1,4]diazepin-6-yl)-6,13-dioxo-2,9-dioxa-5,12-diazatetradecyl)-1-methyl-1H-1,2,3-triazol-4-yl)methoxy)-1-((6-oxo-5-azaspiro[2.4]heptan-5-yl)methyl)-1,2,3,4-tetrahydroisoquinoline-2-carbonyl)-1-methylcyclohexane-1-carboxylic acid]	337	1	65	69	34	78	82	−5	76	78	40	78	80
Cc1sc2c(c1C)C(c1ccc(Cl)cc1)=N[C@@H](CC(=O)NCC(=O)NCCOCC(=O)N1CC[C@H](Oc3ccc(Cl)c4c3[C@@H](CN3CC5(CC5)CC3=O)N(C(=O)[C@@H]3CCCC[C@]3(C)C(=O)O)CC4)C1)c1nnc(C)n1-2 [Example 6, (1S,2R)-2-((S)-5-Chloro-8-(((S)-1-(2-(2-(2-(2-((S)-4-(4-chlorophenyl)-2,3,9-trimethyl-6H-thieno[3,2-f][1,2,4]triazolo[4,3-a][1,4]diazepin-6-yl)acetamido)acetamido)ethoxy)acetyl)pyrrolidin-3-yl)oxy)-1-((6-oxo-5-azaspiro[2.4]heptan-5-yl)methyl)-1,2,3,4-tetrahydroisoquinoline-2-carbonyl)-1-methylcyclohexane-1-carboxylic acid]	2490	9	52	95	−27	43	82	21	60	95	1	44	81
